Assay [1] addresses T1, human sodium channels Nav 1.8 (Homo sapiens, UniProt Q9Y5Y9).
T1 construct: expressed in transfected cells
As to the kind of experiment: Automated whole-cell voltage-clamp (ScreenPatch 384P) sodium current block, Nav 1.8. The class given is cell-based. To be noted: CHO cells stably expressing human Nav 1.8; holding -100 mV, inactivation step -40 mV for 8 seconds, test step 10 mV (TP1A); exposure at least five minutes, room temperature; mean where tested in two or more assays; read-out: Nav1.8 IC50. The procedure:
(§1) Biological assays were performed on Chinese hamster ovary (CHO) cells that express human sodium channels Nav 1.8 or Nav 1.7 in a stable manner.
(§2) The experimental protocol voltage-clamp using the whole cell configuration was established on the automated ScreenPatch® 384P platform (SP384PE, Nanion Technologies, Livingston, NJ) and the results were recorded with a Nanion 384-well Patch Clamp chip (NPC) (Nanion Technologies, Livingston, NJ).
(§3) Compounds of Formula Ia and Formula Ib were diluted in eight concentrations in the extracellular solution composed of saline solution, buffered with HEPES (mM): NaCl, 137; KCl, 4; CaCl2, 3,8; MgCl2, 1; HEPES, 10; Glucose, 10; pH 7.4. The […], 50; CsF, 90; MgCl2, 5; EGTA, 5; HEPES, 10; pH 7.2. The duration of exposure of each compound with cells expressing Nav 1.7 or Nav 1.8 was at least five minutes, and the assays were performed at room temperature.
(§4) The measurements of the sodium currents of Nav 1.8 and Nav 1.7 were obtained using the voltage protocol described below: A holding voltage of -100 mV was established followed by an inactivation voltage step at -40 mV for 8 seconds, followed by a step of -100 mV for 20 ms, followed by a 20 ms step for 10 mV for Nav 1.8 or 0 mV for Nav 1.7 (TP1A) before returning to the holding voltage of -100 mV.
(§5) The protocol was repeated at a frequency of 0.05 Hz and the amplitude of the current was quantified throughout the recording of the TP1A phase. The variation in the amplitude of the peak current was evaluated according to the formula described below, after exposing the cells expressing the channels to each concentration of the different compounds: % Block = (1−(ITP1A,molecule/ITP1A,basal)×100%, [formula] wherein ITP1A,basal and ITP1A,molecule represent the peaks of sodium current input into TP1A before exposure to the compound and in the presence of the compound, respectively.
(§6) Data were obtained by nonlinear regression (nonlinear least squares) with XLfit for Excel (Microsoft, Redmond, WA).
(§7) The compounds were tested in at least one assay to obtain the value of CI50. For compounds that were tested in two or more assays, the results are described as the mean of the CI50 values.

The target in assay [2] is T2, human sodium channels Nav 1.7 (Homo sapiens, UniProt Q15858).
T2 construct: expressed in transfected cells
As to the kind of experiment: Automated whole-cell voltage-clamp (ScreenPatch 384P) sodium current block, Nav 1.7. The class given is cell-based. The note with it: CHO cells stably expressing human Nav 1.7; holding -100 mV, inactivation step -40 mV for 8 seconds, test step 0 mV (TP1A); exposure at least five minutes, room temperature; mean where tested in two or more assays; read-out: Nav1.7 IC50. The procedure:
as §1, §2, §3, §4, §5, §6, §7

A value given as a limit tells only on which side of the number the result lay.

T1 sequence (Q9Y5Y9 whole entry): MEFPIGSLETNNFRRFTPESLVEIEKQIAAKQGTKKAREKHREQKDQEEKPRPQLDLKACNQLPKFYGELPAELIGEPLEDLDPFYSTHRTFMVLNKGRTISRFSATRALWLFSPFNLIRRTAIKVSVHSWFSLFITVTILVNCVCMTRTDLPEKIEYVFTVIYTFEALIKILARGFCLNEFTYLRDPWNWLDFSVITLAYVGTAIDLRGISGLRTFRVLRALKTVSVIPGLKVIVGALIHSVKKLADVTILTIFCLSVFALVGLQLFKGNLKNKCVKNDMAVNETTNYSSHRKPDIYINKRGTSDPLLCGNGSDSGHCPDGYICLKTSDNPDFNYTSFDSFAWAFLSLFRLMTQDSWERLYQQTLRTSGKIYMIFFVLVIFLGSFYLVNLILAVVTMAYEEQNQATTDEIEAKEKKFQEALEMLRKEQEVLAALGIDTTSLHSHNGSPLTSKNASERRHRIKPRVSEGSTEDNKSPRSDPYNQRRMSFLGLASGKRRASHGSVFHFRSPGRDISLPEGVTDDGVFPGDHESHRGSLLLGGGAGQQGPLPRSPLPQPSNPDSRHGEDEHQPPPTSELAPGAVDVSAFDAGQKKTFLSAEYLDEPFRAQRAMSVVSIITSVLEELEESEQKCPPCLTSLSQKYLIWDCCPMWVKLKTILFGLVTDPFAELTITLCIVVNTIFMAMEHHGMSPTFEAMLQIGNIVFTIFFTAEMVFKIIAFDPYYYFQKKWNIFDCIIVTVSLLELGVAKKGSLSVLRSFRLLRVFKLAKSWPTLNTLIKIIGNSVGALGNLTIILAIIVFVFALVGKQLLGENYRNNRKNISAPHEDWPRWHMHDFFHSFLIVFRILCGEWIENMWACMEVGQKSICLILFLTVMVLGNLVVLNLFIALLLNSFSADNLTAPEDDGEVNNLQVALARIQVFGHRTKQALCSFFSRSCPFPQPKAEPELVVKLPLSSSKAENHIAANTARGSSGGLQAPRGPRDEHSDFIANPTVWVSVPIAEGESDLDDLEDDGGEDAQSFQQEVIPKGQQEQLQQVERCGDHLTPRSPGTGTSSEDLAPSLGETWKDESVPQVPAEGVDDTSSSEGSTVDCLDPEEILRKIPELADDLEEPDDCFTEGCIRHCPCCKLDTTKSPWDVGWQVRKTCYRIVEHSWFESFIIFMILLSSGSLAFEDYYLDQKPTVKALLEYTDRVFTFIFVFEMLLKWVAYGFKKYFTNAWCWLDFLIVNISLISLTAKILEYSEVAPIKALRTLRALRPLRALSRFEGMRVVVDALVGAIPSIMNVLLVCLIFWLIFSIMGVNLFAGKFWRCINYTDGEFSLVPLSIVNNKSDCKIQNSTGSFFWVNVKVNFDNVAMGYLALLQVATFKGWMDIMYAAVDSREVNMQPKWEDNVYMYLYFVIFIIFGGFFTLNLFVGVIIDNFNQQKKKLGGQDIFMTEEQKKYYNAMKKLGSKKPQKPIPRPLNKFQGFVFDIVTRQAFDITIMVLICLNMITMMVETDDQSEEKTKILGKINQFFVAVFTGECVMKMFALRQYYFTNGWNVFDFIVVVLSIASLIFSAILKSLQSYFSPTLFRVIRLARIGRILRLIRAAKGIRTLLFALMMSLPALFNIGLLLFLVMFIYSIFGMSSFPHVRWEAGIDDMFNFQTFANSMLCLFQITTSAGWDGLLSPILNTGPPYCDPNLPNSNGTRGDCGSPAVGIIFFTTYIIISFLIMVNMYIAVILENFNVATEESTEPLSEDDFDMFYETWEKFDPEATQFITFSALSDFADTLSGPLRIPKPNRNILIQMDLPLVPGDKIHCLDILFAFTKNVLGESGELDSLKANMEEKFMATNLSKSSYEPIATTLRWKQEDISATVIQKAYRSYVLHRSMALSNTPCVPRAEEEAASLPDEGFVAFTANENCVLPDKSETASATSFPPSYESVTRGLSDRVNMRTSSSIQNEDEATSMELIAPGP
T2 sequence (Q15858 whole entry): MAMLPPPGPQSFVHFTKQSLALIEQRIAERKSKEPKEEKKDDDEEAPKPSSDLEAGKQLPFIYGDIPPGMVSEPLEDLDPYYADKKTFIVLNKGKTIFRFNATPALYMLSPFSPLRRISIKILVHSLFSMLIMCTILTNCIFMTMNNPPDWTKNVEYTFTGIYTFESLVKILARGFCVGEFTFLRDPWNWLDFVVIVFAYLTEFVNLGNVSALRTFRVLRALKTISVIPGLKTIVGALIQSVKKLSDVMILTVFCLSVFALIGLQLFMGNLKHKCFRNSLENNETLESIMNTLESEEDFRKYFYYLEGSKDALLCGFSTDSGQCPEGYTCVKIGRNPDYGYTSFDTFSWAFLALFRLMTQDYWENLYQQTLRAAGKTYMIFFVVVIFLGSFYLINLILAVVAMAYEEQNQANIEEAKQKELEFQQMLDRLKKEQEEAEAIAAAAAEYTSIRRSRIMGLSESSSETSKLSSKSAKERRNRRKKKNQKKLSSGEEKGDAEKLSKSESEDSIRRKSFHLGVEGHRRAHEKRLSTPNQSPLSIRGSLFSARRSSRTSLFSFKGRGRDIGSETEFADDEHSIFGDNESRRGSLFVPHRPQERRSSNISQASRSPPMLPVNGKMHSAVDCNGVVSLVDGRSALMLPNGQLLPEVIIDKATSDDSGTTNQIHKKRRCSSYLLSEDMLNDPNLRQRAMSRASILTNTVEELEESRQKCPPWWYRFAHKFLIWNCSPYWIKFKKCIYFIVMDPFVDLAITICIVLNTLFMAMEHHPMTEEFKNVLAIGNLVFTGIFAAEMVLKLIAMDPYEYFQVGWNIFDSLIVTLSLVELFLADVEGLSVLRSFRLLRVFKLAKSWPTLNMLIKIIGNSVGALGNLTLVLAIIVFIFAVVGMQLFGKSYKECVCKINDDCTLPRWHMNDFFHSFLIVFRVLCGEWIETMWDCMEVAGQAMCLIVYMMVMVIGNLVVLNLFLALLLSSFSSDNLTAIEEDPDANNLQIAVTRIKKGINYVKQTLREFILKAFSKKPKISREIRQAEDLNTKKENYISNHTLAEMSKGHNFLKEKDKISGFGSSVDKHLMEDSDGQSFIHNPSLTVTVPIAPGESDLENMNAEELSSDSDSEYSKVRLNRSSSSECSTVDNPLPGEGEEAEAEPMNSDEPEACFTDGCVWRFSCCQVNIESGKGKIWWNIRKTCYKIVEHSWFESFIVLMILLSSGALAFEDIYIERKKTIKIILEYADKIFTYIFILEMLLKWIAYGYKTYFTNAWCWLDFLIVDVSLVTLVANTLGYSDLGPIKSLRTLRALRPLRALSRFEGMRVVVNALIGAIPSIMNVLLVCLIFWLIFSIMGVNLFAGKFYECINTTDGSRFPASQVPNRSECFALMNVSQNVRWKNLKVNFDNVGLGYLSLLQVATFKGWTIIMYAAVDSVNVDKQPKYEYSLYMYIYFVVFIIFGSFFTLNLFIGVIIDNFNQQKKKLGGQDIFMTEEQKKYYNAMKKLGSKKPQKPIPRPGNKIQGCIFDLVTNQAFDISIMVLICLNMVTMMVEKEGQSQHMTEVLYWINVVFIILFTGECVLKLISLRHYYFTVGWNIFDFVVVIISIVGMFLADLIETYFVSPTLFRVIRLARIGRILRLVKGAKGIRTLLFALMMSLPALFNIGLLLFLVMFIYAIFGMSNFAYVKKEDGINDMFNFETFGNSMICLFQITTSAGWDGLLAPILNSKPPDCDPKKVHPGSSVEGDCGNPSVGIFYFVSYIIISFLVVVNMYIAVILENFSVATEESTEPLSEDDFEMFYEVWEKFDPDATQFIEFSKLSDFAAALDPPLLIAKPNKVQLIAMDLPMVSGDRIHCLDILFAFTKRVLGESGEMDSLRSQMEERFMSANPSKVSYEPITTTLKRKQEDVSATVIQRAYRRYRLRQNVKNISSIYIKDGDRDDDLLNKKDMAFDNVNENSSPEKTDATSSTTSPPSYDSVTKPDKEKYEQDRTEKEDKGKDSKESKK

In the case of `COc1cc(CCNC(=O)c2cncc(-c3ccc(OC(C)C)cc3)n2)cc(OC)c1` [compound 1], the IC50 (usually the concentration at which inhibition is half-maximal) in assay [1] was 0.5 to 1 µM; in assay [2], above 1 µM.
For the compound `COc1cc(CCNC(=O)c2cncc(-c3ccc(OC(F)F)cc3)n2)cc(OC)c1` [compound 2], the IC50 was below 0.5 µM in assay [1] and 0.5 to 1 µM in assay [2].
Turning to `CCOc1ccc(-c2cncc(C(=O)NCCc3cc(OC)cc(OC)c3)n2)c(F)c1` [compound 3], the values for the IC50 in assay [1] and in assay [2] were below 0.5 µM and above 1 µM, respectively.
In the case of `CCOc1ccc(-c2cncc(C(=O)NCCc3cc(OC)cc(OC)c3)n2)c(C)c1` [compound 4], the IC50 in assay [1] and in assay [2] was below 0.5 µM each time.
Regarding `CCOc1ccc(-c2cncc(C(=O)NCCc3cccc(OC)c3)n2)cc1` [compound 5], the IC50 in assay [1] and in assay [2] was below 0.5 µM each time.
Take `CCOc1ccc(-c2cncc(C(=O)NCCc3ccccc3F)n2)cc1` [compound 6]: the IC50 in assay [1] and in assay [2] was below 0.5 µM throughout.
On to `CCOc1ccc(-c2cncc(C(=O)NCCc3cc(OC)cc(OC)c3)n2)cc1` [compound 10], for which the IC50 in assay [1] is below 0.5 µM; in assay [2] it was 0.5 to 1 µM.
For `CCOc1ccc(-c2cncc(C(=O)NCCc3cc(OC)cc(C(C)O)c3)n2)cc1` (stereo not shown) [compound 12], the values for the IC50 in assay [1] and in assay [2] were below 0.5 µM and above 1 µM, respectively.
For `CCOc1ccc(-c2cncc(C(=O)NCCc3cccc(C(C)O)c3)n2)cc1` (stereo not shown) [compound 13], in that order: below 0.5 µM and above 1 µM.
The like results for `CCOc1ccc(-c2cncc(C(=O)NCCc3cc(C(C)O)cnc3F)n2)cc1` (stereo not shown) [compound 14] were, in that order, above 1 µM and above 1 µM.
For `CCOc1ccc(-c2cncc(C(=O)NCCc3cc(C(C)O)ccc3F)n2)cc1` (stereo not shown) [compound 15], in that order: below 0.5 µM and above 1 µM.
For `CCOc1ccc(-c2cncc(C(=O)NCCc3cc(OC)cnc3F)n2)cc1` [compound 16], the IC50 in assay [1] was below 0.5 µM; in assay [2] it was above 1 µM.
The like results for `CCOc1ccc(-c2cncc(C(=O)NCCc3cc(OC)ccc3F)n2)cc1` [compound 17] were, in that order, below 0.5 µM and 0.5 to 1 µM.
With `CCOc1ccc(-c2cncc(C(=O)NCCc3cc(OC)cnc3C)n2)cc1` [compound 18], the values for the IC50 in assay [1] and in assay [2] were below 0.5 µM and above 1 µM, respectively.
The like results for `CCOc1ccc(-c2cncc(C(=O)NC[C@H](C)c3cc(OC)cc(OC)c3)n2)cc1` [compound 22] were, in that order, below 0.5 µM and above 1 µM.
For `CCOc1ccc(-c2cncc(C(=O)NC[C@H](O)c3cc(OC)cc(OC)c3)n2)cc1` [compound 24], in that order: above 1 µM and above 1 µM.
The like results for `CCOc1ccc(-c2cncc(C(=O)NC[C@@H](O)c3cc(OC)cc(OC)c3)n2)cc1` [compound 25] were, in that order, above 1 µM and above 1 µM.
`CCOc1ccc(-c2cncc(C(=O)NC[C@H](N)c3cc(OC)cc(OC)c3)n2)cc1` [compound 26]: the IC50 in assay [1] and in assay [2] was above 1 µM throughout.
Turning to `CCOc1ccc(-c2cncc(C(=O)NC[C@@H](N)c3cc(OC)cc(OC)c3)n2)cc1` [compound 27], the IC50 in assay [1] and in assay [2] was below 0.5 µM each time.
Consider `COc1cc(CCNC(=O)c2cncc(-c3ccc(OC(C)C)nc3)n2)cc(OC)c1` [compound 28], for which the IC50 in assay [1] was below 0.5 µM; in assay [2], 0.5 to 1 µM.
Take `COc1cc(CCNC(=O)c2cncc(-c3ccc(OC(F)F)nc3)n2)cc(OC)c1` [compound 29]: the IC50 in assay [1] was below 0.5 µM; in assay [2], 0.5 to 1 µM.
As to `CCOc1cc(C)c(-c2cncc(C(=O)NCCc3cc(OC)cc(OC)c3)n2)cn1` [compound 30], the IC50 in assay [1] and in assay [2] was above 1 µM throughout.
With `CCOc1ccc(-c2cncc(C(=O)NCCc3cc(OC)cc(OC)c3)n2)c(C)n1` [compound 31], the IC50 in assay [1] and in assay [2] was above 1 µM in each case.
Regarding `CCOc1ccc(-c2cncc(C(=O)NCCc3cc(OC)cnc3F)n2)cn1` [compound 34], the IC50 is below 0.5 µM in assay [1] and 0.5 to 1 µM in assay [2].
`CCOc1ccc(-c2cncc(C(=O)NCCc3cc(OC)cc(C(C)O)c3)n2)cn1` (stereo not shown) [compound 40]: the concentration for half-maximal inhibition (IC50) in assay [1] and in assay [2] was above 1 µM throughout.
For the compound `CCOc1ccc(-c2cncc(C(=O)NCCc3cccc(C(C)O)c3)n2)cn1` (stereo not shown) [compound 41], the IC50 in assay [1] and in assay [2] was above 1 µM each time.
On to `CCOc1ccc(-c2cncc(C(=O)NCCc3cc(C(C)O)ccc3F)n2)cn1` (stereo not shown) [compound 43], for which the values for the IC50 in assay [1] and in assay [2] were below 0.5 µM and 0.5 to 1 µM, respectively.
For `CCOc1ccc(-c2cncc(C(=O)NCCc3cc(OC)cc(OC)c3)n2)cn1` [compound 44], in that order: above 1 µM and above 1 µM.
In the case of `CCOc1ccc(-c2cncc(C(=O)NCCc3cccc(OC)c3)n2)cn1` [compound 45], the figures for the IC50 in assay [1] and in assay [2] were below 0.5 µM and 0.5 to 1 µM, respectively.
The like results for `O=C(NCCc1ccccc1F)c1cncc(-c2ccc(OC(F)F)nc2)n1` [compound 47] were, in that order, above 1 µM and above 1 µM.
The like results for `COc1ccc(-c2cncc(C(=O)NCCc3ccccc3F)n2)cn1` [compound 48] were, in that order, above 1 µM and above 1 µM.
On to `COc1ccc(-c2cncc(C(=O)NCCc3cc(OC)cc(OC)c3)n2)cc1` [compound 49], for which the IC50 in assay [1] and in assay [2] was above 1 µM in each case.
Take `COc1cnc(F)c(CCNC(=O)c2cncc(-c3ccc(OC(F)F)cc3)n2)c1` [compound 50]: the IC50 in assay [1] and in assay [2] was above 1 µM in each case.
For `COc1cnc(F)c(CCNC(=O)c2cncc(-c3ccc(OC(F)F)nc3)n2)c1` [compound 51], the IC50 in assay [1] and in assay [2] was above 1 µM in each case.
For the compound `COc1ccc(-c2cncc(C(=O)NCCc3cc(OC)cnc3F)n2)cc1` [compound 52], the IC50 in assay [1] is below 0.5 µM; in assay [2], above 1 µM.
For `COc1cnc(F)c(CCNC(=O)c2cncc(-c3ccc(OC)nc3)n2)c1` [compound 53], the values for the IC50 in assay [1] and in assay [2] were below 0.5 µM and 0.5 to 1 µM, respectively.
Turning to `COc1cc(OC)cc([C@H](O)CNC(=O)c2cncc(-c3ccc(OC(F)F)cc3)n2)c1` [compound 54], the IC50 in assay [1] was below 0.5 µM; in assay [2], above 1 µM.
For `COc1ccc(-c2cncc(C(=O)NC[C@@H](O)c3cc(OC)cc(OC)c3)n2)cc1` [compound 55], the IC50 in assay [1] is below 0.5 µM; in assay [2], above 1 µM.
The like results for `COc1cnc(F)c(CCNC(=O)c2cncc(-c3ccc(C(C)(C)O)cc3)n2)c1` [compound 56] were, in that order, above 1 µM and above 1 µM.
The like results for `COc1cnc(F)c(CCNC(=O)c2cncc(-c3ccc(C(C)(C)O)nc3)n2)c1` [compound 57] were, in that order, above 1 µM and above 1 µM.
Regarding `COc1cnc(F)c(CCNC(=O)c2cncc(-c3ccc(C(C)O)nc3)n2)c1` (stereo not shown) [compound 58], the IC50 in assay [1] and in assay [2] was above 1 µM in each case.
As for `COc1cnc(F)c(CCNC(=O)c2cncc(-c3ccc(C(C)O)cc3)n2)c1` (stereo not shown) [compound 59], the IC50 in assay [1] and in assay [2] was above 1 µM in each case.
On to `[2H]C([2H])([2H])Oc1ccc(-c2cncc(C(=O)NC[C@@H](O)c3cc(OC([2H])([2H])[2H])cc(OC([2H])([2H])[2H])c3)n2)cc1` [compound 99], for which the IC50 in assay [1] fell in the range of 0.5 to 1 µM.

The values above are taken from patent EP4660185A1, “NAV1.7- AND/OR NAV1.8-INHIBITING AMIDES, PROCESSES FOR THE PREPARATION THEREOF, COMPOSITIONS, USES, METHODS FOR TREATMENT USING SAME, AND KITS” (Eurofarma Laboratórios S.A., priority 2023, dated 2024).
